SMILES strings stand for the structures. Where “and” joins values, the source holds several entries; their conditions need not be identical. Equal entries are not always repeated. Marks after values point to notes of the source that are not given here.

In data set [1] the test system is Plasmodium berghei, ANKA strain. The data set is described as follows: Antimalarial efficacy of a single oral dose of trioxane combined with mefloquine hydrochloride in Plasmodium berghei-infected mice (Table 1). Type of data set: in vivo. How it is done: Each trioxane 2b, 3, 4a, and 4b (0.90 mg) was dissolved in 0.11 mL of 7:3 Tween 80:ethanol and then diluted with 1.10 mL of water for oral administration to 5-week old C57BL/6J male mice (from the Jackson Laboratory) weighing about 22 g that were infected intraperitoneally on day 0 with the Plasmodium berghei, ANKA strain (2×10^7 parasitized erythrocytes). Chen et al., 2006.
Each of five mice in a group was treated orally 24 h post-infection with a single dose of 0.20 mL (0.20 mL/1.21 mL×0.9 mg=0.15 mg) of diluted compound solution, corresponding to a dose of 6.8 mg/kg, combined with 20 mg/kg of mefloquine hydrochloride. Determining blood parasitemia levels, as well as monitoring the duration of animal survival compared to survival time of animals receiving no drug, are both widely accepted as measures of a drug's efficacy in antimalarial drug development. […] Animals receiving no drug died on days 6-7 post-infection. A widely accepted yardstick of cure (i.e., 100% efficacy) is survival of animals to day 30 post-infection, with no detectable malaria parasites in the animal's blood at that time.
Average survival results are summarized in Table 1, including single oral doses of 13 mg/kg of trioxane combined with 13 mg/kg of mefloquine hydrochloride. The clinically used monomeric water-soluble trioxane drug 2c and the synthetic trioxolane peroxide drug development candidate OZ277 (9) maleate are included as monotherapy reference compounds.

Data set [2] relates to Plasmodium berghei, ANKA malaria strain. Nature of the data set: Antimalarial efficacy of a single oral dose (7.1 mg/kg) of trioxane combined with mefloquine hydrochloride (21 mg/kg) in Plasmodium berghei-infected mice (Table 2). Type of data set: in vivo. How it is done: (§1) Each trioxane dimer 12a-12c (0.90 mg) was dissolved in 0.11 mL of 7:3 Tween 80:ethanol and then diluted with 1.10 mL of distilled water for oral administration to 5-week-old C57BL/6J male mice (Jackson Laboratory) weighing about 21 g that were infected ip on day 0 with the Plasmodium berghei, ANKA malaria strain (2×10^7 parasitized erythrocytes) [Chen et al., 2006]. Each of five mice in a group was treated orally 24 h post-infection with a single dose of 0.20 mL (0.20 mL/1.21 mL×0.9 mg=0.15 mg) of diluted compound solution, corresponding to a dose of 7.1 mg/kg, combined with 21 mg/kg of mefloquine hydrochloride. Both determining blood parasitemia levels, as well as monitoring the duration of animal survival compared with survival time of infected animals receiving no drug, are widely accepted measures of drug efficacy in antimalarial drug development. […] The average survival time of the animals receiving no drug was 15.8 days post-infection. […] Widely accepted indications of complete cure (i.e. 100% efficacy) are survival of animals to day 30 post-infection with no detectable malaria parasites in the animal's blood at that time.

A short description of data set [3]: Overt toxicity, behavioral change and body weight in treated malaria-infected mice (dimer ester study). Type of data set: in vivo. The conditions noted are these: 7.1 mg/kg trioxane + 21 mg/kg mefloquine hydrochloride, mice surviving 30 days. How it is done:
as §1

Data set [4] has as its system Plasmodium berghei. The following applies: monotherapy, single oral dose 30 mg/kg; data from Vennerstrom et al.; cited from earlier work.
Setting [5] is: single oral dose 13 mg/kg trioxane + 13 mg/kg mefloquine hydrochloride.

For the molecule `CO[C@H]1O[C@@H]2O[C@@]3(C)CC[C@H]4[C@H](C)CC[C@@H]([C@H]1C)[C@@]24OO3` [2b, artemether, reference compound], the results for the “% Suppression of Parasitemia (on day 3 post-infection)” value in data set [1] (single oral dose 6.8 mg/kg trioxane + 20 mg/kg mefloquine hydrochloride) and in data set [1] (setting [5]) were 99.8% and 99.7%, respectively. The “Average Survival (days) After Infection” value in data set [1] (single oral dose 6.8 mg/kg trioxane + 20 mg/kg mefloquine hydrochloride, 24 h post-infection, C57BL/6J mice) is 19.8 days and 19.8 (16, 17, days; in data set [1] (setting [5]) it was 19.6 (16, 17, days. Also, the “survival after infection (all mice)” value in data set [2] (7.1 mg/kg trioxane + 21 mg/kg mefloquine hydrochloride) is 30 days. Also, in data set [2] (single oral dose 7.1 mg/kg trioxane + 21 mg/kg mefloquine hydrochloride, five mice), the “No. of mice parasite free (day 30)” value was 4. Further, the “% parasitemia on day 30%” value in data set [2] (single oral dose 7.1 mg/kg trioxane + 21 mg/kg mefloquine hydrochloride, number of parasitemic mice in brackets) was 1.6 (1 mouse) %. Further, the weight gain in data set [3] is recorded as 10-20%.
Take `CC(C)(N)CNC(=O)C[C@H]1CC[C@]2(CC1)OO[C@]1(O2)C2CC3CC(C2)CC1C3` [compound 9]: the “% Suppression of Parasitemia (on day 3 post-infection)” value in data set [4] was 99.95^b %.
